Tests used:
MOLT-4 cells = assay: MOLT-4 cell viability, CTG assay; type: cell-based; details: Homo sapiens, MOLT-4, 48 h
In short: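 Viability read as total ATP luminescence (CTG) after 48 h compound treatment, 11 points at 5-fold spacing in triplicate, cells in RPMI 1640/10% FBS. IC50 is the concentration halving signal relative to control, four-parameter fit, averaged over at least 2 experiments.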

Bcl-xL = target: T1, Bcl-xL (Homo sapiens, UniProt Q07817); assay: HCT116 Bcl-xL degradation, capillary-based immunoassay (WES); type: cell-based; details: for DC50: HCT116, 24 h, 9-point serial dilution
T1 construct: Measured levels of Bcl-xL protein of HCT116 cells treated with the tested compounds; host or cells: HCT116
In short: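 Bcl-xL protein level by capillary WES immunoassay in HCT116 lysates, as % of untreated after cofilin normalization. Compound exposure was 24 h at 10 and 100 nM and/or a 9-point series, in quadruplicate. Four-parameter fitting gave the DC50.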

T1 sequence (Q07817 whole entry): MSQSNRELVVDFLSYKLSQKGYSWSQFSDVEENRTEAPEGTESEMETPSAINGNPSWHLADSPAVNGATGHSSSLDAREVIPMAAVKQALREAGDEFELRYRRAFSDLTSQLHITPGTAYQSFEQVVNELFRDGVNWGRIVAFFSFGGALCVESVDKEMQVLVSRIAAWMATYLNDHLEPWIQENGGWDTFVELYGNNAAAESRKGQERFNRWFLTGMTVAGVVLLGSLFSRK

Cc1c(Nc2nc3ccccc3s2)nnc2c1CCCN2c1ccc(-c2cnn(CC34CC5(C)CC(C)(C3)CC(OCCN(C)CCCCCOc3ccc6c(c3)C(=O)N(C3CCC(=O)NC3=O)C6=O)(C5)C4)c2C)c(C(=O)O)n1 (stereo not drawn) [Example 107, 6-[3-(1,3-benzothiazol-2-ylamino)-4-methyl-6,7-dihydro-5H-pyrido[2,3-c]pyridazin-8-yl]-3-[1-[[3-[2-[5-[2-(2,6-dioxo-3-piperidyl)-1,3-dioxo-isoindolin-5-yl]oxypentyl-methyl-amino]ethoxy]-5,7-dimethyl-1-adamantyl]methyl]-5-methyl-pyrazol-4-yl]pyridine-2-carboxylic acid] was tested, and the IC50 (MOLT-4 cells) was 4.72 nM and the DC50 (Bcl-xL) was 0.739 nM.
Cc1c(Nc2nc3ccccc3s2)nnc2c1CCCN2c1ccc(-c2cnn(CC34CC5(C)CC(C)(C3)CC(OCCN(C)CCCCCCCCCCCCCOc3ccc6c(c3)C(=O)N(C3CCC(=O)NC3=O)C6=O)(C5)C4)c2C)c(C(=O)O)n1 (stereo not drawn) [Example 115, 6-[3-(1,3-benzothiazol-2-ylamino)-4-methyl-6,7-dihydro-5H-pyrido[2,3-c]pyridazin-8-yl]-3-[1-[[3-[2-[13-[2-(2,6-dioxo-3-piperidyl)-1,3-dioxo-isoindolin-5-yl]oxytridecyl-methyl-amino]ethoxy]-5,7-dimethyl-1-adamantyl]methyl]-5-methyl-pyrazol-4-yl]pyridine-2-carboxylic acid] was tested, and the IC50 (MOLT-4 cells) was 3.93 nM and the DC50 (Bcl-xL) was 0.266 nM.
For Cc1c(Nc2nc3ccccc3s2)nnc2c1CCCN2c1ccc(-c2cnn(CC34CC5(C)CC(C)(C3)CC(OCCN(C)CCOCCOCCOCCOCCNc3cccc6c3C(=O)N(C3CCC(=O)NC3=O)C6=O)(C5)C4)c2C)c(C(=O)O)n1 (stereo not drawn) [Example 132, 6-[3-(1,3-benzothiazol-2-ylamino)-4-methyl-6,7-dihydro-5H-pyrido[2,3-c]pyridazin-8-yl]-3-[1-[[3-[2-[2-[2-[2-[2-[2-[[2-(2,6-dioxo-3-piperidyl)-1,3-dioxo-isoindolin-4-yl]amino]ethoxy]ethoxy]ethoxy]ethoxy]ethyl-methyl-amino]ethoxy]-5,7-dimethyl-1-adamantyl]methyl]-5-methyl-pyrazol-4-yl]pyridine-2-carboxylic acid], the IC50 (MOLT-4 cells) was 26.6 nM, the remaining activity at 0.01 µM (Bcl-xL; HCT-116, HCT116, 10 nM, 24 h, % of untreated cells) was 108% and the remaining activity at 0.1 µM (Bcl-xL; HCT-116, HCT116, 100 nM, 24 h, % of untreated cells) was 103%.
In the case of Cc1c(Nc2nc3ccccc3s2)nnc2c1CCCN2c1ccc(-c2cnn(CC34CC5(C)CC(C)(C3)CC(OCCN(C)CCCCCCOc3cccc6c3C(=O)N(C3CCC(=O)NC3=O)C6=O)(C5)C4)c2C)c(C(=O)O)n1 (stereo not drawn) [Example 141, 6-[3-(1,3-benzothiazol-2-ylamino)-4-methyl-6,7-dihydro-5H-pyrido[2,3-c]pyridazin-8-yl]-3-[1-[[3-[2-[6-[2-(2,6-dioxo-3-piperidyl)-1,3-dioxo-isoindolin-4-yl]oxyhexyl-methyl-amino]ethoxy]-5,7-dimethyl-1-adamantyl]methyl]-5-methyl-pyrazol-4-yl]pyridine-2-carboxylic acid], the IC50 (MOLT-4 cells) is reported as 10.4 nM and the DC50 (Bcl-xL) is reported as > 316 nM.
Compound Cc1c(Nc2nc3ccccc3s2)nnc2c1CCCN2c1ccc(-c2cnn(CC34CC5(C)CC(C)(C3)CC(OCCN(C)CCCCCCCCCCCCCCOc3ccc6c(c3)C(=O)N(C3CCC(=O)NC3=O)C6=O)(C5)C4)c2C)c(C(=O)O)n1 (stereo not drawn) [Example 142, 6-[3-(1,3-benzothiazol-2-ylamino)-4-methyl-6,7-dihydro-5H-pyrido[2,3-c]pyridazin-8-yl]-3-[1-[[3-[2-[14-[2-(2,6-dioxo-3-piperidyl)-1,3-dioxo-isoindolin-5-yl]oxytetradecyl-methyl-amino]ethoxy]-5,7-dimethyl-1-adamantyl]methyl]-5-methyl-pyrazol-4-yl]pyridine-2-carboxylic acid] has an IC50 (MOLT-4 cells) of 3.76 nM and a DC50 (Bcl-xL) of 0.341 nM.
In the case of Cc1c(Nc2nc3ccccc3s2)nnc2c1CCCN2c1ccc(-c2cnn(CC34CC5(C)CC(C)(C3)CC(OCCN(C)CCCCCCCCOc3cccc6c3C(=O)N(C3CCC(=O)NC3=O)C6=O)(C5)C4)c2C)c(C(=O)O)n1 (stereo not drawn) [Example 143, 6-[3-(1,3-benzothiazol-2-ylamino)-4-methyl-6,7-dihydro-5H-pyrido[2,3-c]pyridazin-8-yl]-3-[1-[[3-[2-[8-[2-(2,6-dioxo-3-piperidyl)-1,3-dioxo-isoindolin-4-yl]oxyoctyl-methyl-amino]ethoxy]-5,7-dimethyl-1-adamantyl]methyl]-5-methyl-pyrazol-4-yl]pyridine-2-carboxylic acid], the IC50 (MOLT-4 cells) is reported as 5.28 nM and the DC50 (Bcl-xL) is reported as > 316 nM.
Cc1c(Nc2nc3ccccc3s2)nnc2c1CCCN2c1ccc(-c2cnn(CC34CC5(C)CC(C)(C3)CC(OCCN(C)CCCCCCCCCCCCCCCCOc3ccc6c(c3)C(=O)N(C3CCC(=O)NC3=O)C6=O)(C5)C4)c2C)c(C(=O)O)n1 (stereo not drawn) [Example 147, 6-[3-(1,3-benzothiazol-2-ylamino)-4-methyl-6,7-dihydro-5H-pyrido[2,3-c]pyridazin-8-yl]-3-[1-[[3-[2-[16-[2-(2,6-dioxo-3-piperidyl)-1,3-dioxo-isoindolin-5-yl]oxyhexadecyl-methyl-amino]ethoxy]-5,7-dimethyl-1-adamantyl]methyl]-5-methyl-pyrazol-4-yl]pyridine-2-carboxylic acid] was tested, and the IC50 (MOLT-4 cells) was 5.34 nM and the DC50 (Bcl-xL) was > 316 nM.
For Cc1ncsc1-c1ccc([C@H](C)NC(=O)[C@@H]2C[C@@H](O)CN2C(=O)[C@@H](NC(=O)CCCCCCCCCCCCCN(C)CCOC23CC4(C)CC(C)(CC(Cn5ncc(-c6ccc(N7CCCc8c7nnc(Nc7nc9ccccc9s7)c8C)nc6C(=O)NC(C)C)c5C)(C4)C2)C3)C(C)(C)C)cc1 [Example 157, 6-[3-(1,3-benzothiazol-2-ylamino)-4-methyl-6,7-dihydro-5H-pyrido[2,3-c]pyridazin-8-yl]-3-[1-[[3-[2-[[14-[[(1S)-1-[(2S,4R)-4-hydroxy-2-[[(1S)-1-[4-(4-methylthiazol-5-yl)phenyl]ethyl]carbamoyl]pyrrolidine-1-carbonyl]-2,2-dimethyl-propyl]amino]-14-oxo-tetradecyl]-methyl-amino]ethoxy]-5,7-dimethyl-1-adamantyl]methyl]-5-methyl-pyrazol-4-yl]-N-isopropyl-pyridine-2-carboxamide], the IC50 (MOLT-4 cells) was 7.62 nM and the DC50 (Bcl-xL) was 18.8 nM.
In the case of Cc1ncsc1-c1ccc([C@H](C)NC(=O)[C@@H]2C[C@@H](O)CN2C(=O)[C@@H](NC(=O)CCOCCOCCN(C)CCOC23CC4(C)CC(C)(CC(Cn5ncc(-c6ccc(N7CCCc8c7nnc(Nc7nc9ccccc9s7)c8C)nc6C(=O)O)c5C)(C4)C2)C3)C(C)(C)C)cc1 [Example 173, 6-[3-(1,3-benzothiazol-2-ylamino)-4-methyl-6,7-dihydro-5H-pyrido[2,3-c]pyridazin-8-yl]-3-[1-[[3-[2-[2-[2-[3-[[(1S)-1-[(2S,4R)-4-hydroxy-2-[[(1S)-1-[4-(4-methylthiazol-5-yl)phenyl]ethyl]carbamoyl]pyrrolidine-1-carbonyl]-2,2-dimethyl-propyl]amino]-3-oxo-propoxy]ethoxy]ethyl-methyl-amino]ethoxy]-5,7-dimethyl-1-adamantyl]methyl]-5-methyl-pyrazol-4-yl]pyridine-2-carboxylic acid], the IC50 (MOLT-4 cells) is reported as 35.6 nM and the DC50 (Bcl-xL) is reported as > 316 nM.
For Cc1c(Nc2nc3ccccc3s2)nnc2c1CCCN2c1nc(C(=O)O)c(CCCOc2ccc(C#CCN3CCN(C(=O)CCCC(=O)NCCOCCNC(=O)COc4cccc5c4C(=O)N(C4CCC(=O)NC4=O)C5=O)CC3)cc2F)s1 (stereo not drawn) [Example 174, 2-[3-(1,3-benzothiazol-2-ylamino)-4-methyl-6,7-dihydro-5H-pyrido[2,3-c]pyridazin-8-yl]-5-[3-[4-[3-[4-[5-[2-[2-[[2-[2-(2,6-dioxo-3-piperidyl)-1,3-dioxo-isoindolin-4-yl]oxyacetyl]amino]ethoxy]ethylamino]-5-oxo-pentanoyl]piperazin-1-yl]prop-1-ynyl]-2-fluoro-phenoxy]propyl]thiazole-4-carboxylic acid], the IC50 (MOLT-4 cells) was 26 nM and the DC50 (Bcl-xL) was > 316 nM.
